One series has as its target T1, USP2 (Homo sapiens, UniProt O75604).
T1 sequence (O75604 1-605): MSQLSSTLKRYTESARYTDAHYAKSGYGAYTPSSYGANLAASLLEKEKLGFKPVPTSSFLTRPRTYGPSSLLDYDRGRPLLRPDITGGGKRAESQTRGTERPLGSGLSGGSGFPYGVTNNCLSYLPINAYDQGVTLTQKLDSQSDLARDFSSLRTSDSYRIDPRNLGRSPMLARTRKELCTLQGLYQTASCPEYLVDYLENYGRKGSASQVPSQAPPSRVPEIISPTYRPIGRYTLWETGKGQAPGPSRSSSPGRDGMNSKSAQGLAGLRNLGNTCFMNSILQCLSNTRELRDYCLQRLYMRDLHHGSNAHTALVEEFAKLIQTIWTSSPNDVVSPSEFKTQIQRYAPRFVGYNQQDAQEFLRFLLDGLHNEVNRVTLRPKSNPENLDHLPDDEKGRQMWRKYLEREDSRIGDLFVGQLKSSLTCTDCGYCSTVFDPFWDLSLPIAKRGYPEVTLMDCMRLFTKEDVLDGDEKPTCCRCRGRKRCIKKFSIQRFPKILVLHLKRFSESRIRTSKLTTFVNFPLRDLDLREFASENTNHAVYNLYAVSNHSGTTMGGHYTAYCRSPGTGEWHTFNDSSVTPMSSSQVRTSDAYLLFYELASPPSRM
As to the kind of experiment: Selectivity counter-assay against USP2. The series is classed as biochemical. Conditions: FIG. 6C / 7A.

In series [1] the target is ARISC (BRCC36-Abraxas-BRCC45-MERIT40) (Homo sapiens, UniProt P46736). As to the kind of experiment: Cross-reactivity against ARISC holoenzyme. The series is classed as biochemical. Particulars: FIG. 7A.
The next series deals with T2, BRISC (Homo sapiens, UniProt P46736+Q15018).
T2 construct: made in house; host or cells: insect cells (MultiBac baculovirus)
As to the kind of experiment: BRISC DUB inhibition assay with quenched K63-linked di-ubiquitin substrate (TAMRA fluorescence). The series is classed as biochemical. As for the experimental part:
High throughput screening. A baculoviral expression system was established to purify milligram quantities of the entire BRISC complex from insect cells. The MultiBac system was used to clone all 4 components of the BRISC complex into one vector which was then packaged into the baculovirus genome using the methods described in Zeqiraj et al., 2015 (Mol. Cell).
The assay buffer included: 50 mM HEPES-NaOH, pH 7.0; 100 mM NaCl; 1 mM DTT; 1 mg/ml BSA; and 0.03% Brij-35. BRISC was assayed at 1 nM (final concentration) with the substrate at 500 nM (final concentration). The final reaction volume was 20 μl in each 384 plate well (Corning, #3573; black, low flange, flat bottom) with a final concentration of compounds of 10 μM.
A 5 ml of enzyme solution with BRISC at 2 nM in assay buffer was made by adding 10 μl of BRISC working stock (1 μM) to 5 ml of assay buffer. A 5 ml of substrate solution was made with […] of K63-diUbiquitin (made in-house) plus […] of IQF K63-diUbiquitin by adding the appropriate volumes of diUbiquitins to 5 ml of assay buffer. 45 μL of BRISC (enzyme solution) was dispensed into columns 1-11 of a 96 well PCR plate (skirted). Buffer was only dispensed in column 12 (no enzyme control). 45 μl of substrate solution was dispensed into columns 1-12 of a 96 well PCR plate (skirted). The plate was spun down at 3000 rpm (bench top centrifuge) at room temp for 2 min to remove any air bubbles. Using a Biomek FX, liquid handler (Bekman), 10 μl of BRISC (enzyme solution) was dispensed into the 4 quadrants of a 384 well plate. 200 nl of compounds was dispensed into each well of the 384 plates using the pin tool (columns A and B usually contain DMSO only, and serve as controls), and the plates were incubated for 10-15 minutes at room temperature. 10 μl of substrate solution was dispensed into the 4 quadrants of the 384 well plate. The plate was then incubated for 30 min at room temperature in the dark and read with settings suitable for detecting TAMRA fluorescence (excitation wavelength of 540 nm and emission wavelength of 580 nm). A PHERAStar plate (BMG labtech) reader was used with a gain value of 570. The Intensity/Background (I/Bg), defined as [(Average of columns 1 and 2; DMSO controls)/(Average of columns 23 and 24; no enzyme controls)], were about 5.
The activities of the compounds disclosed in the present disclosure in inhibiting BRCC36 enzyme activity was measured in accordance with the method disclosed in Example 2.

For series [2], the target named is RAP80 (BRCC36-Abraxas-BRCC45-MERIT40-RAP80) complex (Homo sapiens, UniProt P46736). The series is described as follows: Cross-reactivity against RAP80 holoenzyme. The series is classed as biochemical. Particulars: FIG. 7A.
For the next series, the system named is trypsin. As to the kind of experiment: Selectivity counter-assay against trypsin. The format is biochemical. Conditions: FIG. 6C / 7A.
For the next series, the target named is T3, BRCC36 enzyme activity (Homo sapiens, UniProt P46736+Q15018).
T3 construct: made in house; host or cells: insect cells (MultiBac baculovirus)
As to the kind of experiment: Mode of inhibition: increasing di-Ubiquitin substrate and free Zn2+. The series is classed as biochemical.

The next series relates to human cells. As to the kind of experiment: Cellular toxicity in human cells. The format is cell-based. Conditions: 5 μM.
Setting [3] is: Table 2, method of Example 2, read-out: BRISC IC50 μM Range.

Like-named read-outs stand apart in the source and are kept apart here.

As usually defined, the IC50 is the concentration at which inhibition is half-maximal. Regarding `O=C(NC1CCNCC1)c1nn(C(=O)c2c(Cl)cccc2Cl)cc1NC(=O)c1c(Cl)cccc1Cl` [Compound 1, 4-(2,6-dichlorobenzamido)-1-(2,6-dichlorobenzoyl)-N-(piperidin-4-yl)-1H-pyrazole-3-carboxamide], the “selectivity for BRISC versus USP2” value on USP2 is recorded as “selectivity for BRISC”. Besides, the “cross reactivity to ARISC holoenzyme” value in series [1] was “no significant cross reactivity”. Besides, the IC50 against BRISC (Table 1, Activity Range Table) fell in the range of 1 to 10 µM. The “cross reactivity to RAP80 holoenzyme” value in series [2] was “no significant cross reactivity”. Moreover, in the series on trypsin, the “selectivity for BRISC versus trypsin” value is listed as “selectivity for BRISC”. For the same compound, at BRCC36 enzyme activity, the mode of inhibition result is recorded as “non-competitive inhibitors”.
For the compound `C#CCCCCOc1ccc(S(=O)(=O)n2cc(NC(=O)c3c(Cl)cccc3Cl)c(C(=O)NC3CCNCC3)n2)cc1` [Compound 41, 4-(2,6-Dichlorobenzamido)-1-(4-(hex-5-ynyloxy)phenylsulfonyl)-N-(piperidin-4-yl)-1H-pyrazole-3-carboxamide], on BRISC (setting [3]), the IC50 was 1 to 10 µM.
As to `O=C(NC1CCNCC1)c1nn(S(=O)(=O)CCc2ccc(Cl)cc2)cc1NC(=O)c1c(Cl)cccc1Cl` [Compound 31], the IC50 on BRISC (Table 1, Activity Range Table) lay in the range of 1 to 10 µM.
Regarding `COC(=O)c1ccccc1NC(=O)n1cc(NC(=O)c2c(Cl)cccc2Cl)c(C(=O)NCCCN2CCCC2)n1` [Compound 21], at BRISC (Table 1, Activity Range Table), the IC50 lay in the range of 50 to 300 µM.
Take `COC(=O)COc1ccc(S(=O)(=O)n2cc(NC(=O)c3c(Cl)cccc3Cl)c(C(=O)NC3CCNCC3)n2)cc1` [Compound 33, Methyl 2-(4-(4-(2,6-dichlorobenzamido)-3-(piperidin-4-ylcarbamoyl)-1H-pyrazol-1-ylsulfonyl)phenoxy)acetate]: the concentration for half-maximal inhibition (IC50) at BRISC (Table 1, Activity Range Table) was in the range of 50 to 300 µM.
Consider `COC(=O)c1cnc2c(SCc3ccccn3)cccc2c1` [Compound 54], for which, on BRISC (setting [3]), the IC50 was in the range of 10 to 50 µM.
The compound `O=C(NC1CCNCC1)c1nn(S(=O)(=O)c2cc(Cl)cc(Cl)c2)cc1NC(=O)c1c(Cl)cccc1Cl` [Compound 3] showed a concentration for half-maximal inhibition (IC50) on BRISC (Table 1, Activity Range Table) of 1 to 10 µM.
Still for that read-out and setting: the figure for `CN(C(=O)c1nn(C(=O)c2c(Cl)cccc2Cl)cc1NC(=O)c1c(Cl)cccc1Cl)C1CNC1` [Compound 15] is 10 to 50 µM.
Still for that read-out and setting: the figure for `O=C(NC1CCNCC1)c1nn(S(=O)(=O)CCc2ccccc2)cc1NC(=O)c1c(Cl)cccc1Cl` [Compound 6] is 1 to 10 µM.
Still for that read-out and setting: with `COc1ccccc1NC(=O)n1cc(NC(=O)c2c(Cl)cccc2Cl)c(C(=O)NC2CCNCC2)n1` [Compound 18, 4-(2,6-dichlorobenzamido)-N1-(2-methoxyphenyl)-N3-(piperidin-4-yl)-1H-pyrazole-1,3-dicarboxamide] the figure was 10 to 50 µM.
In turn, `O=C(NC1CCNCC1)c1nn(S(=O)(=O)c2cc(Cl)cc(C(F)(F)F)c2)cc1NC(=O)c1c(Cl)cccc1Cl` [Compound 27] yielded an IC50 on BRISC (Table 1, Activity Range Table) of 50 to 300 µM.
The same measure, in the same setting: the figure for `C#CCCCCOC(=O)COc1ccc(S(=O)(=O)n2cc(NC(=O)c3c(Cl)cccc3Cl)c(C(=O)NC3CCNCC3)n2)cc1` [Compound 32, Hex-5-ynyl 2-(4-(4-(2,6-dichlorobenzamido)-3-(piperidin-4-ylcarbamoyl)-1H-pyrazol-1-ylsulfonyl)phenoxy)acetate] is 10 to 50 µM; for `O=C(N[C@H]1CCNC1)c1nn(C(=O)c2c(Cl)cccc2Cl)cc1NC(=O)c1c(Cl)cccc1Cl` [Compound 9] it is 1 to 10 µM.
As to `C[C@@H]1CNCCN1C(=O)c1nn(C(=O)c2c(Cl)cccc2Cl)cc1NC(=O)c1c(Cl)cccc1Cl` [Compound 55], the IC50 on BRISC (setting [3]) fell in the range of 1 to 10 µM.
Take `CCOc1cc(C(C)(C)C)ccc1C1=N[C@@](C)(c2ccc(Cl)cc2)[C@@](C)(c2ccc(Cl)cc2)N1C(=O)N1CCN(CC(=O)NCCOCCOCCn2cc(CCCCOc3ccc(S(=O)(=O)n4cc(NC(=O)c5c(Cl)cccc5Cl)c(C(=O)NC5CCNCC5)n4)cc3)nn2)CC1` [Compound 42, 1-(4-(4-(1-(2-(2-(2-(2-(4-((4S,5R)-2-(4-Tert-butyl-2-ethoxyphenyl)-4,5-bis(4-chlorophenyl)-4,5-dimethyl-4,5-dihydro-1H-imidazole-1-carbonyl)piperazin-1-yl)acetamido)ethoxy)ethoxy)ethyl)-1H-1,2,3-triazol-4-yl)butoxy)phenylsulfonyl)-4-(2,6-dichlorobenzamido)-N-(piperidin-4-yl)-1H-pyrazole-3-carboxamide]: the IC50 on BRISC (setting [3]) was 0.1 to 1 µM.
Compound `COc1ccccc1NC(=O)n1cc(NC(=O)c2c(Cl)cccc2Cl)c(C(=O)NC2CCNCC2)n1` [Compound 19] came in with a half-inhibitory concentration (IC50) against BRISC (Table 1, Activity Range Table) of 10 to 50 µM.
Still for that read-out and setting: the figure for `O=C(NCCN1CCCC1)c1nn(C(=O)c2c(Cl)cccc2Cl)cc1NC(=O)c1c(Cl)cccc1Cl` [Compound 20] is 10 to 50 µM.
Turning to `CS(=O)(=O)n1cc(NC(=O)c2c(Cl)cccc2Cl)c(C(=O)NC2CCNCC2)n1` [Compound 2, 4-(2,6-dichlorobenzamido)-1-(methylsulfonyl)-N-(piperidin-4-yl)-1H-pyrazole-3-carboxamide], the cellular toxicity result in the series on human cells is reported as “no detectable cellular toxicity”. On BRISC (Table 1, Activity Range Table), this compound had an IC50 of 1 to 10 µM.
